Consider six compounds from patent US6642228B1, “α1b-adrenergic receptor antagonists” (Toray Industries, Inc., priority 1999, dated 2003).

The structures appear in SMILES notation. Where a name gives a salt, the structure may show the parent alone.

One assay deals with T1, α1B adrenoceptor (Rattus norvegicus, UniProt P15823).
T1 construct: a 100,000×g precipitation fraction was prepared from a rat liver and this was used as a crude membrane preparation; from tissue; host or cells: liver of Sprague-Dawley male rat, crude membrane preparation
T1 sequence (P15823 1-515): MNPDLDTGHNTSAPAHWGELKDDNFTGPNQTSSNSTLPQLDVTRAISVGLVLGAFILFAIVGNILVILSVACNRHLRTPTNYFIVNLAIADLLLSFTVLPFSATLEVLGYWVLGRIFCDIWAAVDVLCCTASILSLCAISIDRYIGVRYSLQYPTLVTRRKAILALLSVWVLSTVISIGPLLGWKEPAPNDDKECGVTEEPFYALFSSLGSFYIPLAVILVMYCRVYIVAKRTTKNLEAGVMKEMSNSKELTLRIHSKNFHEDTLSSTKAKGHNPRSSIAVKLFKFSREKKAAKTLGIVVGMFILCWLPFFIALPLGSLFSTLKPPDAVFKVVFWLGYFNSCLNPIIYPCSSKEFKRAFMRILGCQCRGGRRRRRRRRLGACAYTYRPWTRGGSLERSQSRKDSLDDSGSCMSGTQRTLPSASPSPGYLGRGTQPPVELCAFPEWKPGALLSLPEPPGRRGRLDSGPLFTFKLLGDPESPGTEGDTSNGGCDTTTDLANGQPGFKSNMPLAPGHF
In words: Binding to α1B adrenoceptor, [3H] prazosin, rat liver crude membrane preparation. The settings on record: 0.5 nM [3H] prazosin, 25° C., 30 minutes. As for the experimental part:
As an α1B adrenoceptor preparation, a 100,000×g precipitation fraction was prepared from a rat liver and this was used as a crude membrane preparation in the experiment.
A Sprague-Dawley male rat was exsanguinated under ether anesthesia, and the liver was isolated, was weighed and was cut into pieces with scissors. The cut liver was put into a Potter-Elvehjem type Teflon homogenizer, and was homogenized with 9 times by volume (9 mL per 1 g of the wet weight of the liver) of a 50 mM Tris-HCl buffer (pH 7.4) containing 0.25 M sucrose, 10 mM MgCl2, 1 mM EDTA, 0.2 mM DTT, and 0.1 mM PMSF. The homogenate was centrifuged at 800×g for 10 minutes, and the resulting supernatant was centrifuged at 100,000×g for 10 minutes, and the supernatant was then further centrifuged at 100,000×g for 60 minutes. The precipitate obtained by centrifugation was suspended in a 50 mM Tris-HCl buffer (pH=7.4) (Buffer A) containing 10 mM MgCl2, 0.2 mM DTT, and 0.1 mM PMSF to a protein concentration of about 10 mg/mL, and the suspension was used as the crude membrane preparation.
(§1) Each of the crude membrane preparations was dispensed and was stored at −80° C. and was subjected to the experiment on use. The protein concentration was determined by Lowry method using bovine serum albumin as a standard.
(§2) Buffer A (400 μL) containing 0.5 nM [3H] prazosin and 200 μg crude membrane preparation was used as a standard reaction solution. The receptor preparation and [3H] prazosin were incubated at 25° C. for 30 minutes, and 2 mL of cold Buffer A was added to terminate the reaction. […] The same experimental procedure was performed in the presence of 10 μM phentolamine to thereby determine a nonspecific binding activity. A specific binding activity was calculated by subtracting the nonspecific binding activity from the total binding activity.
(§3) A solution ofa test drug was prepared by dissolving the test drug to 10 mM in distilled water, ethanol, or DMSO, and serially diluting the solution with distilled water.
(§4) Kd values and Bmax values were determined using Scatchard plots. Dissociation constant Ki (riM) of each compound was determined according to the following equation.
(§5) Ki=IC50/[1+(radioactive ligand concentration/Kd)]

A further assay addresses T2, α1A adrenoceptor (Rattus norvegicus, UniProt P43140).
T2 construct: a 43,000×g precipitation fraction was prepared from a rat submaxillary gland, and this was used as a crude membrane preparation; from tissue; host or cells: submaxillary gland of Sprague-Dawley male rat, crude membrane preparation
T2 sequence (P43140 1-466): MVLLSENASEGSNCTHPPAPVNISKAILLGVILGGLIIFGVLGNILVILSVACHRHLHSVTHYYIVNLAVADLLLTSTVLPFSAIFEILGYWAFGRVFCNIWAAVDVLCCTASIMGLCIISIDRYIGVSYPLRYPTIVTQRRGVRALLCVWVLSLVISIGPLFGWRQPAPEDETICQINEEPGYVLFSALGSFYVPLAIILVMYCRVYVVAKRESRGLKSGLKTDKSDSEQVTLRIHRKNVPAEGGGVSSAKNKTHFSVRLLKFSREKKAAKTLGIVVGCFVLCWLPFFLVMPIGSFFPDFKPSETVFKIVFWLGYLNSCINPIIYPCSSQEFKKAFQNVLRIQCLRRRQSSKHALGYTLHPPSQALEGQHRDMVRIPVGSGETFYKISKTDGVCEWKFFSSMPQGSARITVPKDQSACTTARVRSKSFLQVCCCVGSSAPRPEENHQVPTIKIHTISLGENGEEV
In words: Binding to α1A adrenoceptor, [3H] prazosin, rat submaxillary gland crude membrane preparation. The settings on record: 0.5 nM [3H] prazosin, 25° C., 30 minutes. How it is done: All experiments were performed at temperatures between 0° C. and 4° C. As an α1A adrenoceptor preparation, a 43,000×g precipitation fraction was prepared from a rat submaxillary gland, and this was used as a crude membrane preparation in the experiment.
A Sprague-Dawley male rat was exsanguinated under ether anesthesia, and the submaxillary gland was isolated, was weighed and was cut to pieces with scissors. The cut gland was put into a Potter-Elvehjem type Teflon homogenizer, and was homogenized with 5 times by volume (5 mL per 1 g of the wet weight of the submaxillary gland) of a 50 mM Tris-HCl buffer (pH=7.4) containing 5 mM EDTA, 0.2 mM DTT, and 0.1 mM PMSF. The resulting homogenate was allowed to pass through a nylon mesh and was centrifuged at 800×g for 10 minutes, and the resulting supernatant was centrifuged at 43,000×g for 15 minutes. The precipitate was suspended in a 50 mM Tris-HCl buffer (pH=7.4) (Buffer A) containing 10 mM MgCl2, 0.2 mM DTT, and 0.1 mM PMSF and was then centrifuged at 43,000×g for 15 minutes. The resulting precipitate was suspended in Buffer A to a protein concentration of about 10 mg/mL, and the suspension was used as the crude membrane preparation.
as §1, §2, §3, §4, §5

Assay [1] concerns vasopressor response induced by phenylephrine (an α1 adrenoceptor agonist). The assay can be described thus: Inhibitory activity against vasopressor response induced by phenylephrine in rats under anesthesia. The format is in vivo, rat. To be noted: continuous i.v. infusion, 15 minutes after administration, phenylephrine 3 μg/kg, mean ± standard error. As for the experimental part:
The inhibitory activity of the α1B adrenoceptor antagonist according to Example 23 against vasopressor response induced by phenylephrine (an α1 adrenoceptor agonist) in rats under anesthesia was studied. […] The compound was dissolved in physiological saline, and was infused into the femoral vein at a rate of 20 μl/kg/min. Phenylephrine was dissolved in physiological saline and was bolus injected at a dose of 0.2 ml/kg (3 μg/kg). The inhibition rate was calculated according to the following equation.
Inhibition rate (7)=[1—(pressure increase induced by phenylephrine 15 minutes after administration of the example compound)/(pressure increase induced by phenylephrine before administration of the example compound)]×100

A word on the Ki: it is a measure of affinity in units of concentration, obtained from inhibition or displacement. In the case of `c1ccc2c(c1)CN(CCCN1CCC(c3c[nH]c4ccccc34)CC1)C2` [Example 14, 3-(1-(3-Isoindolin-2-ylpropyl)-4-piperidyl)indole Hydrochloride], the inhibition constant (Ki) on α1B adrenoceptor is 3.6 nM; at α1A adrenoceptor, 50 nM.

Take `Fc1ccc2c(C3CCN(CCCN4Cc5ccccc5C4)CC3)c[nH]c2c1` [Example 23, 6-Fluoro-3-(1-(3-Isoindolin-2-ylpropyl)-4-piperidyl)indole Hydrochloride]: the Ki on α1B adrenoceptor was found to be 0.79 nM; on α1A adrenoceptor, 18 nM. Besides, the Inhibition rate was determined as 24 ± 5% in assay [1] (dose 0.1 mg/kg/min), 47 ± 5% in assay [1] (dose 0.3 mg/kg/min), 72 ± 5% in assay [1] (dose 1 mg/kg/min) and 86 ± 2% in assay [1] (dose 3 mg/kg/min).

Take `c1ccc(C2CCN(CCCN3CCC(c4ccccc4)CC3)CC2)cc1` [Reference Example 21, 4-Phenyl-1-(3-(4-phenylpiperidyl)propyl)piperidine Hydrochloride, reference compound]: the results for the Ki at α1B adrenoceptor and on α1A adrenoceptor were 860 nM and 870 nM, respectively.

For `c1ccc2c(c1)CN(CCCCCN1CCC(c3c[nH]c4ccccc34)CC1)C2` [Example 16, 3-(1-(5-Isoindolin-2-ylpentyl)-4-piperidyl)indole], the Ki worked out at 1.6 nM on α1B adrenoceptor and 82 nM at α1A adrenoceptor.

On to `c1ccc2c(c1)CN(CCCCN1CCC(c3c[nH]c4ccccc34)CC1)C2` [Example 15, 3-(1-(4-Isoindolin-2-ylbutyl)-4-piperidyl)indole Hydrochloride], for which the Ki was determined as 1.4 nM on α1B adrenoceptor and 30 nM at α1A adrenoceptor.

Turning to `Fc1ccc2c(C3CCN(CCCN4CCCCC4)CC3)c[nH]c2c1` [Example 21, 6-Fluoro-3-(1i-(3-Piperidylpropyl)-4-piperidyl)indole Hydrochloride], the Ki came to 0.63 nM at α1B adrenoceptor and 21 nM at α1A adrenoceptor.
